Assay [1] addresses Galectin-1 (Homo sapiens (Human), UniProt P09382). In words: Fluorescence anisotropy assay, compound as inhibitor of galectin / fluorescein tagged saccharide probe interaction. Type of assay: binding. Here is the method:
(§1) The affinity of Example 1-32 for galectins were determined by a fluorescence anisotropy assay where the compound was used as an inhibitor of the interaction between galectin and a fluorescein tagged saccharide probe as described Sörme, P., Kahl-Knutsson, B., Huflejt, M., Nilsson, U. J., and Leffler H. (2004) Fluorescence polarization as an analytical tool to evaluate galectin-ligand interactions. Anal. Biochem. 334: 36-47, (Sörme et al., 2004) and Monovalent interactions of Galectin-1 By Salomonsson, Emma; Larumbe, Amaia; Tejler, Johan; Tullberg, Erik; Rydberg, Hanna; Sundin, Anders; Khabut, Areej; Frejd, Torbjorn; Lobsanov, Yuri D.; Rini, James M.; et al, From Biochemistry (2010), 49(44), 9518-9532, (Salonmonsson et al., 2010).
Background: Polarisation of emitted light reports the rotation of a fluorescent probe.

In assay [2] the target is Galectin-3 (Homo sapiens (Human), UniProt P17931). The assay is described as above. It counts as binding. Here is the method: as §1

Molecules are shown by their SMILES.

Broadly, the Kd is the concentration at which binding is half-saturated. A higher Kd goes with lower affinity.

Galectin-3, sequence (P17931 whole entry): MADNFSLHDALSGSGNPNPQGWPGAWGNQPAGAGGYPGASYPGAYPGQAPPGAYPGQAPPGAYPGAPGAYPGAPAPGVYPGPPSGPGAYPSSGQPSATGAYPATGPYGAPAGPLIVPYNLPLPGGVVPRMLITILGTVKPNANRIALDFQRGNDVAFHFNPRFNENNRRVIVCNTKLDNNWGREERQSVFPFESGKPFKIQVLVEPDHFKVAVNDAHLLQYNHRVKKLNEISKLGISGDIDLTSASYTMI

Consider `N#Cc1cc(F)c(S[C@H]2OC(CO)[C@H](O)[C@H](n3cc(-c4ccsc4)nn3)C2O)cc1Cl` (stereo partly drawn) [Example 2, 2-Chloro-5-fluoro-benzonitril-4-yl 3-deoxy-3-[4-(3-thiophenyl)-1H-1,2,3-triazol-1-yl]-1-thio-α-D-galactopyranoside], for which the equilibrium dissociation constant (Kd) in assay [1] was 190 nM; in assay [2] it was 1950 nM.

Take `OC[C@H]1O[C@H](Sc2cncc(Br)c2)[C@H](O)[C@@H](n2cc(-c3ccsc3)nn2)[C@H]1O` [Example 3, 5-Bromopyridin-3-yl 3-deoxy-3-[4-(3-thiophenyl)-1H-1,2,3-triazol-1-yl]-1-thio-α-D-galactopyranoside]: the equilibrium dissociation constant (Kd) in assay [1] was 680 nM; in assay [2] it was 1700 nM.

Turning to `OC[C@H]1O[C@H](Sc2ccc(Cl)c(Cl)c2)[C@H](O)[C@@H](n2cc(-c3ccc(F)cn3)nn2)[C@H]1O` [Example 6, 3,4-Dichlorophenyl 3-deoxy-3-[4-(5-fluoro-2-pyridyl)-1H-1,2,3-triazol-1-yl]-1-thio-α-D-galactopyranoside], the results for the dissociation constant (Kd) in assay [1] and in assay [2] were 240 nM and 690 nM, respectively.

For the molecule `OC[C@H]1O[C@H](Sc2cncc(Br)c2)[C@H](O)[C@@H](n2cc(-c3cccs3)nn2)[C@H]1O` [Example 7, 5-Bromopyridin-3-yl 3-deoxy-3-[4-(2-thiophenyl)-1H-1,2,3-triazol-1-yl]-1-thio-α-D-galactopyranoside], the Kd is 450 nM in assay [1] and 1250 nM in assay [2].

As for `OC[C@H]1O[C@H](Sc2cc(Cl)c(F)c(Cl)c2)[C@H](O)[C@@H](n2cc(-c3cccs3)nn2)[C@H]1O` [Example 8, 3,5-Dichloro-4-fluoro-phenyl 3-deoxy-3-[4-(2-thiophenyl)-1H-1,2,3-triazol-1-yl]-1-thio-α-D-galactopyranoside], the figures for the Kd in assay [1] and in assay [2] were 920 nM and 2300 nM, respectively.

Consider `OC[C@H]1O[C@H](Sc2ccc(Cl)c(Cl)c2)[C@H](O)[C@@H](n2cc(-c3ccc(F)s3)nn2)[C@H]1O` [Example 9, 3,4-Dichlorophenyl 3-deoxy-3-[4-(5-fluoro-2-thiophenyl)-1H-1,2,3-triazol-1-yl]-1-thio-α-D-galactopyranoside], for which the Kd in assay [1] turned out to be 550 nM; in assay [2], 970 nM.

In the case of `OC[C@H]1O[C@H](Sc2cncc(Br)c2)[C@H](O)[C@@H](n2cc(-c3cscn3)nn2)[C@H]1O` [Example 10, 5-Bromopyridin-3-yl 3-deoxy-3-[4-(4-thiazolyl)-1H-1,2,3-triazol-1-yl]-1-thio-α-D-galactopyranoside], the equilibrium dissociation constant (Kd) in assay [1] stood at 250 nM; in assay [2], 4100 nM.

On to `OC[C@H]1O[C@H](Sc2cnc(C(F)(F)F)c(Br)c2)[C@H](O)[C@@H](n2cc(-c3cscn3)nn2)[C@H]1O` [Example 11, 5-Bromo-6-trifluoromethyl-pyridin-3-yl 3-deoxy-3-[4-(4-thiazolyl)-1H-1,2,3-triazol-1-yl]-1-thio-α-D-galactopyranoside], for which the dissociation constant (Kd) in assay [1] is 170 nM; in assay [2], 2900 nM.

With `OC[C@H]1O[C@H](Sc2ccc(Cl)c(Cl)c2)[C@H](O)[C@@H](n2cc(-c3cscn3)nn2)[C@H]1O` [Example 12, 3,4-Dichlorophenyl 3-deoxy-3-[4-(4-thiazolyl)-1H-1,2,3-triazol-1-yl]-1-thio-α-D-galactopyranoside], the values for the dissociation constant Kd in assay [1] and in assay [2] were 310 nM and 5300 nM, respectively.

In the case of `N#Cc1ccc(S[C@H]2OC(CO)[C@H](O)[C@H](n3cc(-c4cscn4)nn3)C2O)cc1Cl` (stereo partly drawn) [Example 13, 2-Chloro-benzonitril-4-yl 3-deoxy-3-[4-(4-thiazolyl)-1H-1,2,3-triazol-1-yl]-1-thio-α-D-galactopyranoside], the equilibrium dissociation constant (Kd) in assay [1] was determined as 370 nM; in assay [2] it was 6100 nM.

Consider `Cc1nc(-c2cn([C@@H]3[C@@H](O)[C@@H](Sc4cncc(Br)c4)O[C@H](CO)[C@@H]3O)nn2)cs1` [Example 15, 5-Bromopyridin-3-yl 3-deoxy-3-[4-(2-methyl-4-thiazolyl)-1H-1,2,3-triazol-1-yl]-1-thio-α-D-galactopyranoside], for which the dissociation constant Kd in assay [1] was found to be 640 nM; in assay [2], 3200 nM.

Take `N#Cc1c(Cl)cc(S[C@H]2OC(CO)[C@H](O)[C@H](n3cc(-c4nccs4)nn3)C2O)cc1Cl` (stereo partly drawn) [Example 16, 2,6-Dichloro-bensonitril-4-yl 3-deoxy-3-[4-(2-thiazolyl)-1H-1,2,3-triazol-1-yl]-1-thio-α-D-galactopyranoside]: the Kd in assay [1] was 800 nM; in assay [2], 12000 nM.

As to `OC[C@H]1O[C@H](Sc2cc(Cl)c(Cl)c(Cl)c2)[C@H](O)[C@@H](n2cc(-c3nccs3)nn2)[C@H]1O` [Example 17, 3,4,5-Trichlorophenyl 3-deoxy-3-[4-(2-thiazolyl)-1H-1,2,3-triazol-1-yl]-1-thio-α-D-galactopyranoside], the Kd in assay [1] is 610 nM; in assay [2], 1300 nM.

Consider `OC[C@H]1O[C@H](Sc2ccc(Cl)c(Cl)c2)[C@H](O)[C@@H](n2cc(-c3nccs3)nn2)[C@H]1O` [Example 18, 3,4-Dichlorophenyl 3-deoxy-3-[4-(2-thiazolyl)-1H-1,2,3-triazol-1-yl]-1-thio-α-D-galactopyranoside], for which the Kd stood at 240 nM in assay [1] and 4100 nM in assay [2].

For `OC[C@H]1O[C@H](Sc2cc(Cl)c(Cl)c(Cl)c2)[C@H](O)[C@@H](n2cc(-c3nncs3)nn2)[C@H]1O` [Example 19, 3,4,5-Trichlorophenyl 3-deoxy-3-[4-(1,3,4-thiadiazol-2-yl)-1H-1,2,3-triazol-1-yl]-1-thio-α-D-galactopyranoside], the Kd in assay [1] was 350 nM; in assay [2], 4400 nM.

As for `OCC1O[C@H](Sc2cncc(Br)c2)C(O)[C@@H](n2cc(-c3nccs3)nn2)[C@H]1O` (stereo partly drawn) [Example 20, 5-Bromopyrdin-3-yl 3-deoxy-3-[4-(2-thiazolyl)-1H-1,2,3-triazol-1-yl]-1-thio-α-D-galactopyranoside], the dissociation constant Kd in assay [1] was found to be 550 nM; in assay [2], 4600 nM.

Regarding `OC[C@H]1O[C@H](Sc2cncc(Cl)c2)[C@H](O)[C@@H](n2cc(-c3nccs3)nn2)[C@H]1O` [Example 21, 5-Chloropyridin-3-yl 3-deoxy-3-[4-(2-thiazolyl)-1H-1,2,3-triazol-1-yl]-1-thio-α-D-galactopyranoside], the Kd stood at 220 nM in assay [1] and 1800 nM in assay [2].

Regarding `N#Cc1ncc(Br)cc1S[C@H]1O[C@H](CO)[C@H](O)[C@H](n2cc(-c3nccs3)nn2)[C@H]1O` [Example 22, 5-Bromo-2-cyano-pyridine-3-yl 3-deoxy-3-[4-(2-thiazolyl)-1H-1,2,3-triazol-1-yl]-1-thio-α-D-galactopyranoside], the Kd was 200 nM in assay [1] and 1200 nM in assay [2].

With `N#Cc1ncc(S[C@H]2O[C@H](CO)[C@H](O)[C@H](n3cc(-c4nccs4)nn3)[C@H]2O)cc1Cl` [Example 23, 5-Chloro-6-cyano-pyridine-3-yl 3-deoxy-3-[4-(2-thiazolyl)-1H-1,2,3-triazol-1-yl]-1-thio-α-D-galactopyranoside], the figures for the Kd in assay [1] and in assay [2] were 440 nM and 4400 nM, respectively.

Regarding `OC[C@H]1O[C@H](Sc2cc(Cl)cc(Cl)c2)[C@H](O)[C@@H](n2cc(-c3nccs3)nn2)[C@H]1O` [Example 24, 3,5-Dichlorophenyl 3-deoxy-3-[4-(2-thiazolyl)-1H-1,2,3-triazol-1-yl]-1-thio-α-D-galactopyranoside], the Kd in assay [1] is 340 nM; in assay [2], 1600 nM.

Regarding `OC[C@H]1O[C@H](Sc2ccc(Cl)c(Br)c2)[C@H](O)[C@@H](n2cc(-c3nccs3)nn2)[C@H]1O` [Example 25, 3-Bromo-4-chlorophenyl 3-deoxy-3-[4-(2-thiazolyl)-1H-1,2,3-triazol-1-yl]-1-thio-α-D-galactopyranoside], the Kd in assay [1] came out at 440 nM; in assay [2], 4400 nM.

In the case of `OC[C@H]1O[C@H](Sc2cnc(C(F)(F)F)c(Br)c2)[C@H](O)[C@@H](n2cc(-c3nccs3)nn2)[C@H]1O` [Example 26, 5-Bromo-6-trifluoromethyl-pyridine-3-yl 3-deoxy-3-[4-(2-thiazolyl)-1H-1,2,3-triazol-1-yl]-1-thio-α-D-galactopyranoside], the dissociation constant (Kd) in assay [1] came out at 310 nM; in assay [2], 2000 nM.

On to `OC[C@H]1O[C@H](Sc2ccc(F)c(Br)c2)[C@H](O)[C@@H](n2cc(-c3nccs3)nn2)[C@H]1O` [Example 27, 3-Bromo-4-fluoro-phenyl 3-deoxy-3-[4-(2-thiazolyl)-1H-1,2,3-triazol-1-yl]-1-thio-α-D-galactopyranoside], for which the Kd came out at 490 nM in assay [1] and 4700 nM in assay [2].

With `OC[C@H]1O[C@H](Sc2cc(Cl)ccc2Cl)[C@H](O)[C@@H](n2cc(-c3nccs3)nn2)[C@H]1O` [Example 28, 2,5-Dichlorophenyl 3-deoxy-3-[4-(2-thiazolyl)-1H-1,2,3-triazol-1-yl]-1-thio-α-D-galactopyranoside], the dissociation constant (Kd) in assay [1] is 910 nM; in assay [2] it was 8200 nM.

Regarding `OCC1O[C@H](Sc2ccc(Cl)c(Cl)c2)C(O)[C@@H](n2cc(-c3nc(Br)cs3)nn2)[C@H]1O` (stereo partly drawn) [Example 29, 3,4-dichlorophenyl 3-deoxy-3-[4-(4-bromo-2-thiazol-2-yl)-1H-1,2,3-triazol-1-yl]-1-thio-α-D-galactopyranoside], the Kd in assay [1] was 150 nM; in assay [2], 810 nM.

Take `OC[C@H]1O[C@H](Sc2ccc(Cl)c(Cl)c2)[C@H](O)[C@@H](n2cc(-c3ncc(F)s3)nn2)[C@H]1O` [Example 30, 3,4-Dichlorophenyl 3-deoxy-3-[4-(5-fluoro-thiazol-2-yl)-1H-1,2,3-triazol-1-yl]-1-thio-α-D-galactopyranoside]: the values for the equilibrium dissociation constant (Kd) in assay [1] and in assay [2] were 400 nM and 1600 nM, respectively.
